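Dose response: 5 concentrations. Exposure: 48 h. Format: 96-well plates. Endpoint: linear interpolation; highest concentration if not reached. TGI: total growth inhibition.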
Experiments:
Assay in all cases: NCI anticancer screen, dose series, 48 h
HOP-92 NSCLC = test system: HOP-92 NSCLC
K-562 leukemia = test system: K-562 leukemia
SNB-75 CNS = test system: SNB-75 CNS
NCI-H226 lung = test system: NCI-H226 lung
KM12 colon = test system: KM12 colon
MOLT-4 leukemia = test system: MOLT-4 leukemia
A549 NSCLC = test system: A549 NSCLC
UO-31 renal = test system: UO-31 renal
SF-268 CNS = test system: SF-268 CNS
RXF 393 renal = test system: RXF 393 renal
OVCAR-3 ovarian = test system: OVCAR-3 ovarian
HCT-116 colon = test system: HCT-116 colon
OVCAR-5 ovarian = test system: OVCAR-5 ovarian
OVCAR-8 ovarian = test system: OVCAR-8 ovarian
A498 renal = test system: A498 renal
NCI-H460 lung = test system: NCI-H460 lung
SNB-19 CNS = test system: SNB-19 CNS

Structure (SMILES) | TGI (HOP-92 NSCLC) [µM] | TGI (K-562 leukemia) [µM] | TGI (SNB-75 CNS) [µM] | TGI (NCI-H226 lung) [µM] | TGI (KM12 colon) [µM] | TGI (MOLT-4 leukemia) [µM] | TGI (A549 NSCLC) [µM] | TGI (UO-31 renal) [µM] | TGI (SF-268 CNS) [µM] | TGI (RXF 393 renal) [µM] | TGI (OVCAR-3 ovarian) [µM] | TGI (HCT-116 colon) [µM] | TGI (OVCAR-5 ovarian) [µM] | TGI (OVCAR-8 ovarian) [µM] | TGI (A498 renal) [µM] | TGI (NCI-H460 lung) [µM] | TGI (SNB-19 CNS) [µM]
Cc1nc(N)c(-c2ccccc2)s1 | > 100 | > 100 | > 100 | > 100 | > 100 | > 100 | > 100 | > 100 | > 100 | > 68.9 | > 100 | > 66.8 | > 100 | > 100 | > 100 | > 100 | > 100
CCCCNC(=NCc1ccccc1)NC#N | > 100 | – | > 100 | > 100 | > 100 | > 100 | > 100 | > 100 | > 100 | – | > 100 | > 100 | > 100 | > 100 | > 100 | > 100 | > 100
CCN(CC)CCC1(C2CCCCC2)CCC(=O)NC1=O (stereo unspecified) | – | > 100 | > 100 | > 100 | > 100 | > 100 | > 100 | > 100 | > 100 | > 100 | > 100 | > 100 | > 100 | > 100 | > 100 | > 100 | > 100
CC1(C)OCN(c2ccc(S(N)(=O)=O)cc2)Cn2c1nc1ccccc12 | > 100 | > 100 | > 100 | > 100 | > 100 | > 100 | > 100 | > 100 | > 100 | > 100 | > 100 | > 100 | – | > 100 | > 100 | > 100 | > 100
C/C(=N/NC(=O)C[n+]1ccccc1)C(CN(CC(C)C)CC(C)C)C(=O)Nc1ccc(C)cc1C (stereo unspecified) | > 100 | > 100 | – | – | – | > 100 | > 100 | 82.8 | > 100 | > 100 | – | > 100 | > 100 | > 100 | 92.9 | > 100 | > 100
C[C@@]1(Cc2ccccc2)C(=O)N2[C@@H](CO)C(c3ccccc3)O[C@]2(C)c2ccccc21 (stereo partly specified) | > 100 | > 100 | > 100 | > 100 | > 100 | > 100 | > 100 | > 100 | > 100 | > 100 | > 100 | > 100 | > 100 | > 100 | – | – | > 100
Clc1ccc(CCc2ccncn2)c(Cl)c1 | > 100 | > 100 | > 100 | > 100 | > 100 | > 100 | > 100 | 94 | > 100 | 82.4 | > 100 | > 100 | > 100 | > 100 | > 100 | > 100 | > 100
COc1ccccc1-n1c(N)c2c(C)c(-c3ccccc3)[nH]c2nc1=S | > 100 | > 100 | > 100 | > 100 | > 100 | > 100 | > 100 | > 100 | – | – | > 100 | > 100 | > 100 | > 100 | > 100 | > 100 | > 100
CCOc1ccc(/C=C(\Cl)c2ccc(OC)cc2)cc1 | > 100 | > 100 | > 100 | > 100 | – | > 100 | > 100 | > 100 | > 100 | > 100 | – | > 100 | – | > 100 | > 100 | – | > 100
CC/C(=N/O)c1ccc2[nH]c3c(C)cc([N+](=O)[O-])c(C)c3c2c1 | – | > 100 | > 100 | > 100 | > 100 | > 100 | > 100 | > 100 | > 100 | – | > 100 | > 100 | > 100 | > 100 | – | > 100 | > 100
CC12C(=C(C#N)C(=N)N1c1ccc(Cl)c(Cl)c1)C=C(O)CC2SCCS(=O)(=O)O (stereo unspecified) | > 100 | > 100 | > 100 | > 100 | > 100 | > 100 | > 100 | > 100 | > 100 | 94.7 | > 100 | > 100 | – | > 100 | > 100 | – | > 100
CC(C)N(C(=O)C12C3C4C1C1C2C3C41I)C(C)C (stereo unspecified) | > 100 | > 100 | > 100 | > 100 | > 100 | > 100 | > 100 | > 100 | > 100 | – | > 100 | > 100 | > 100 | > 100 | > 100 | > 100 | > 100
C/C(=N\NC(=S)NC(CCC(=O)O)C(=O)O)c1cnccn1 (stereo unspecified) | > 100 | > 100 | > 100 | > 100 | > 100 | > 100 | > 100 | > 100 | > 100 | > 100 | > 100 | > 100 | > 100 | > 100 | > 100 | > 100 | > 100
CCOC(=O)c1sc2c(c1O)c(=O)n(-c1ccccc1)c(=S)n2-c1ccccc1 | > 100 | > 100 | > 100 | > 100 | > 100 | – | > 100 | > 100 | > 100 | > 100 | > 100 | – | > 100 | > 100 | – | > 100 | > 100
O=C(Cc1ccc([N+](=O)[O-])c([N+](=O)[O-])c1CC(=O)C(=O)Nc1cc(Cl)ccc1Cl)C(=O)Nc1cc(Cl)ccc1Cl | > 100 | > 100 | > 100 | > 100 | > 100 | > 100 | > 100 | > 100 | > 100 | 94.7 | > 100 | > 100 | > 100 | > 100 | > 100 | > 100 | > 100
O=C(N/N=C(/c1nc2ccc([N+](=O)[O-])cc2[nH]c1=O)C(O)c1ccc([N+](=O)[O-])cc1)c1ccncc1 (stereo unspecified) | > 100 | > 100 | > 100 | > 100 | > 100 | > 100 | > 100 | > 100 | > 100 | – | – | > 100 | > 100 | > 100 | > 100 | > 100 | –
COc1cc(OC)c2c(=O)c3c([N+](=O)[O-])cccc3n(C)c2c1 | > 100 | > 100 | > 100 | > 100 | > 100 | > 100 | > 100 | > 100 | > 100 | > 100 | > 100 | > 100 | > 100 | > 100 | > 100 | > 100 | > 100
C#CCNC(=O)NCCCCC(NC(C)=O)C(=O)NCc1ccccc1 (stereo unspecified) | > 100 | > 100 | > 100 | > 100 | > 100 | > 100 | > 100 | > 100 | > 100 | > 100 | > 100 | > 100 | > 100 | > 100 | > 100 | > 100 | > 100
CCOC(=O)C(/C(=N\NC(=O)OC)C(=O)Nc1cc(OC)ccc1OC)c1cnc2ccccc2n1 (stereo unspecified) | > 100 | > 100 | > 100 | > 100 | – | – | > 100 | > 100 | > 100 | > 100 | – | > 100 | – | > 100 | > 100 | > 100 | –
Oc1cc(CN2CCOCCOCCOCCOCC2)c(O)cc1CN1CCOCCOCCOCCOCC1 | 49.7 | > 75.2 | > 100 | > 85 | > 100 | 52.6 | > 100 | > 100 | 96.8 | 60.5 | > 100 | 43.4 | 61.6 | > 100 | > 100 | > 100 | > 100
Cc1nc(-n2nc(-c3ccccc3)cc2-c2ccccc2)sc1C(=O)/C=C/c1ccc(Cl)c(Cl)c1 | – | 63.7 | – | 87.6 | 20.8 | 52.5 | > 100 | 23.9 | > 100 | > 100 | 54.2 | > 100 | 66.2 | 31.3 | – | > 100 | 42.1
COc1ccccc1-n1c(NN)nc2ccc(Br)cc2c1=O | – | > 100 | > 100 | > 100 | > 100 | > 100 | > 100 | 93.1 | > 100 | > 100 | > 100 | – | 68.8 | > 100 | – | > 100 | > 100
Cc1ccc(NC(=O)CSc2nnc(Cc3ccccc3)o2)cc1 | – | > 100 | > 100 | > 100 | > 100 | > 100 | > 100 | > 100 | > 100 | > 100 | > 100 | > 100 | > 100 | > 100 | > 100 | > 100 | > 100
